Source: patent US4599228A, “Antimicrobial agent” (Vipont Laboratories, Inc., priority 1984, dated 1986)
“Also recorded” adds a separate entry of the source. Like-named read-outs stand apart in the source and are kept apart here.

How the values were obtained:
[1] = tested on: Escherichia coli; assay: Inhibitory concentration in vitro, separate test; type: cell-based
Description: (§1) A separate test was conducted to determine the inhibitory concentration of sanguinarine chloride alone. These concentrations, for microorganisms in vitro, are as follows: […]

[2] = tested on: Streptococcus mutans; assay: Inhibitory concentration in vitro, separate test; type: cell-based
Description: as §1

[3] = tested on: Staphylococcus aureus; assay: Inhibitory concentration in vitro, separate test; type: cell-based
Description: as §1

[4] = tested on: Candida albicans; assay: Inhibitory concentration in vitro, separate test; type: cell-based
Description: as §1

[5] = tested on: dental plaque / plaque forming microorganisms; assay: In vivo plaque, gingivitis and periodontal disease treatment of dogs and humans
[6] = tested on: microorganisms; assay: General antimicrobial activity in vitro; type: cell-based
Source text: When zinc chloride was replaced with a fluoride salt in the present preparations, the activity of the preparation against microorganisms believed to be associated with the causation of dental caries and periodontal disease (Streptococcus mutans), as well as other microorganisms, remained identical.

[7] = tested on: infection; assay: In vivo antimicrobial action and tolerability (clinical studies)
[8] = tested on: plaque forming microorganisms freshly collected from human dental plaque; assay: Dental plaque reduction in vitro; type: cell-based
[9] = tested on: gingivitis, plaque and pocket depth in dogs; assay: Oral Clinical Studies - Beagles (dogs); type: in vivo, beagle dogs; design: Mean Gingivitis Scores / Mean Plaque Scores: scale not given here; settings: for Mean Gingivitis Scores / Mean Plaque Scores / Mean Pocket Depths / gingivitis, activity in words / return of dental plaque, activity in words: beagles; for Mean Gingivitis Scores / Mean Plaque Scores / Mean Pocket Depths: 0.1% sanguinarine chloride and/or 2.7% zinc chloride; for gingivitis, activity in words / return of dental plaque, activity in words: four weeks of treatment
Description: The dogs were treated topically once daily with the respective test formulation.

[10] = tested on: Escherichia coli; assay: Mean inactivating dose in vitro; type: cell-based; settings: per ml of media
Description: (§2) In order to illustrate the antimicrobial effectiveness of the composition according to the present invention, a series of in vitro and in vivo tests were performed.

[11] = tested on: Proteus vulgaris; assay: Mean inactivating dose in vitro; type: cell-based; settings: per ml of media
Description: as §2

[12] = tested on: Klebsiella pneumoniae; assay: Mean inactivating dose in vitro; type: cell-based; settings: per ml of media
Description: as §2

[13] = tested on: Streptococcus faecalis; assay: Mean inactivating dose in vitro; type: cell-based; settings: per ml of media
Description: as §2

[14] = tested on: Streptococcus mutans; assay: Mean inactivating dose in vitro; type: cell-based; settings: per ml of media
Description: as §2

[15] = tested on: Staphylococcus aureus; assay: Mean inactivating dose in vitro; type: cell-based; settings: per ml of media
Description: as §2

[16] = tested on: Pseudomonas aeruginosa; assay: Mean inactivating dose in vitro; type: cell-based; settings: per ml of media
Description: as §2

[17] = tested on: Saccharomyces cerevisiae; assay: Mean inactivating dose in vitro; type: cell-based; settings: per ml of media
Description: as §2

[18] = tested on: Bacillus subtilis; assay: Mean inactivating dose in vitro; type: cell-based; settings: per ml of media
Description: as §2

[19] = tested on: fungi and protozoa; settings: in solution; cited from earlier work
[20] = 0 (start), baseline, topical once daily
[21] = after 4 weeks, topical once daily, untreated 0.91
[22] = after 4 weeks, topical once daily, untreated 1.458
[23] = after 4 weeks, topical once daily, untreated 12.408

**Q.** Which results are given for `C[n+]1cc2c3c(ccc2c2ccc4cc5c(cc4c21)OCO5)OCO3` [Sanguinarine chloride, sanguinarine chloride]?
**A.** MIC [1]: 100 µg/mL; MIC [2]: 50 µg/mL; MIC [3]: 10 µg/mL; MIC [4]: 100 µg/mL; effect against plaque forming microorganisms in vivo ([5]; in vivo): ineffective against plaque forming microorganisms; effect on dental plaque, gingivitis and periodontal disease ([5]; repeated or continuous treatment of affected area, dogs and humans): did not reduce dental plaque or alleviate the symptoms of gingivitis or periodontal disease; also recorded: did not prevent the accumulation of dental plaque on teeth or prevent the occurrence of periodontal disease; antimicrobial properties [6]: strong antimicrobial properties; antimicrobial properties ([6]; listed as sanguinarine chloride): quite effective against microorganisms; in vivo effectiveness / antimicrobial action [7]: only slightly effective or not at all; also recorded: only slightly antimicrobial, very slow acting, or had no effect on the course of the infection at all; comparison with chlorhexidine (Hibitane), inhibition of plaque forming microorganisms [8]: compared favorably in vitro to chlorhexidine; reduction of dental plaque ([8]; 25 micrograms per milliliter): 100%; Mean Gingivitis Scores [9, 20]: 0.495; Mean Plaque Scores [9, 20]: 8.885; Mean Pocket Depths [9, 20]: 1.415; plaque and gingivitis scores, rank among groups ([9]; 24 male beagle dogs, after four weeks, topical once daily): highest; Mean Gingivitis Scores [9, 21]: 0.942; Mean Pocket Depths [9, 22]: 1.48; Mean Plaque Scores [9, 23]: 12.89; gingivitis, activity in words [9]: no activity in vivo at all; return of dental plaque, activity in words [9]: not active in vivo

**Q.** With `[Cl-].[Cl-].[Zn+2]` [Zinc chloride, zinc chloride, reference compound] as the compound, how does the Mean inactivating dose [10] read?
**A.** Its Mean inactivating dose is 6,250 μg/ml.

**Q.** And the Mean inactivating dose [11]?
**A.** The Mean inactivating dose was 12,500 μg/ml.

**Q.** What about the Mean inactivating dose [12] of the same compound?
**A.** The Mean inactivating dose was 3,125 μg/ml.

**Q.** What about the Mean inactivating dose [13] of the same compound?
**A.** The Mean inactivating dose was 25,000 μg/ml.

**Q.** What about the Mean inactivating dose [14] of the same compound?
**A.** The Mean inactivating dose was 1,563 μg/ml.

**Q.** And the Mean inactivating dose [15]?
**A.** Its Mean inactivating dose is 6,250 μg/ml.

**Q.** What about the Mean inactivating dose [16] of the same compound?
**A.** The Mean inactivating dose was 3,500 μg/ml.

**Q.** What about the Mean inactivating dose [17] of the same compound?
**A.** Its Mean inactivating dose is 6,250 μg/ml.

**Q.** And the Mean inactivating dose [18]?
**A.** The Mean inactivating dose was 25,000 μg/ml.

**Q.** What about the antimicrobial properties [6] of the same compound?
**A.** The antimicrobial properties was “antimicrobial properties only in high concentrations”.

**Q.** And the “speed of action in vivo” value [7]?
**A.** The value was “slow acting in vivo as an antimicrobial agent”.

**Q.** What about the “tissue damage / undesirable side effects” value ([7]; concentrations required for antimicrobial action) of the same compound?
**A.** The value was “caused blanching of tissue and, in some cases, chemical burns and other tissue damage”.

**Q.** What about the “Mean Gingivitis Scores” value [9, 20] of the same compound?
**A.** Its value is 0.44.

**Q.** What about the “Mean Plaque Scores” value [9, 20] of the same compound?
**A.** The value was 8.76.

**Q.** What about the “Mean Pocket Depths” value [9, 20] of the same compound?
**A.** The value was 1.46.

**Q.** And the “Mean Gingivitis Scores” value [9, 21]?
**A.** Its value is 0.75.

**Q.** What about the “Mean Pocket Depths” value [9, 22] of the same compound?
**A.** The value was 1.37.

**Q.** And the “Mean Plaque Scores” value [9, 23]?
**A.** The value was 10.15.

**Q.** And the “gingivitis, activity in words” value [9]?
**A.** Its value is “slightly active”.

**Q.** What about the “return of dental plaque, activity in words” value [9] of the same compound?
**A.** Its value is “slightly preventive”.

**Q.** With `COc1ccc2c(c[n+](C)c3c4cc5c(cc4ccc23)OCO5)c1OC` [chelerythrine chloride] as the compound, how does the antimicrobial properties [6] read?
**A.** The antimicrobial properties was “strong antimicrobial properties”.

**Q.** For `C[n+]1cc2c3c(ccc2c2ccc4cc5c(cc4c21)OCO5)OCO3` [sanguinarine], which “antifungal and antiprotozoan properties” value [19] is on record?
**A.** The value was “some antifungal and antiprotozoan properties”.
